Earlier results on one substance are cited in US20240122923A1, “METHODS OF TREATING HIDRADENITIS SUPPURATIVA” (AbbVie Inc., priority 2022, published 2024).

The series relates to HS. The settings on record: 24-week treatment period; cited from earlier work.

On to etanercept, for which the “improvement of HS” value is given as “failed to show improvement of HS”.
